Data reported in patent US20090111811A1, “1,2,4-TRIAZOLE CARBOXYLIC ACID DERIVATIVES AS MODULATORS OF MGLUR5” (AstraZeneca AB, priority 2007, published 2009).

Tests used:
[1] = Determination of brain to plasma ratio in rat; assay type: in vivo; details: brain and plasma, female Sprague Dawley rats, read-out: Brain/Plasma Ratio of compound in Rat
Description: Brain to plasma ratios are estimated in female Sprague Dawley rats. The compound is dissolved in water or another appropriate vehicle. For determination of brain to plasma ratio the compound is administrated as a subcutaneous, or an intravenous bolus injection, or an intravenous infusion, or an oral administration. At a predetermined time point after the administration a blood sample is taken with cardiac puncture. The rat is terminated by cutting the heart open, and the brain is immediately retained. The blood samples are collected in heparinized tubes and centrifuged within 30 minutes, in order to separate the plasma from the blood cells. The plasma is transferred to 96-well plates and stored at −20° C. until analysis. The brains are divided in half, and each half is placed in a pre-tarred tube and stored at −20° C. until analysis. Prior to the analysis, the brain samples are thawed and 3 mL/g brain tissue of distilled water is added to the tubes. The brain samples are sonicated in an ice bath until the samples are homogenized. Both brain and plasma samples are precipitated with acetonitrile. After centrifugation, the supernatant is diluted with 0.2% formic acid. […] After reconstitution of the residuals the samples are ready for injection onto the HPLC column.

human mGluR5d = molecular target: T1, human mGluR5d (Homo sapiens, UniProt P41594); assay: FLIPR assay, functional assessment of mGluR5 antagonism (intracellular calcium mobilization); assay type: cell-based; details: cells expressing human mGluR5d; IC50 determination; read-out: FLIPR hmGluR5d
T1 construct: expressed in transfected cells; The cells are kept under Hygromycin B and Zeocin selection; The separate IP3 assay names GHEK cells stably expressing human mGluR5d
T1 sequence (P41594 21-942 isoform P41594-3 limits assumed): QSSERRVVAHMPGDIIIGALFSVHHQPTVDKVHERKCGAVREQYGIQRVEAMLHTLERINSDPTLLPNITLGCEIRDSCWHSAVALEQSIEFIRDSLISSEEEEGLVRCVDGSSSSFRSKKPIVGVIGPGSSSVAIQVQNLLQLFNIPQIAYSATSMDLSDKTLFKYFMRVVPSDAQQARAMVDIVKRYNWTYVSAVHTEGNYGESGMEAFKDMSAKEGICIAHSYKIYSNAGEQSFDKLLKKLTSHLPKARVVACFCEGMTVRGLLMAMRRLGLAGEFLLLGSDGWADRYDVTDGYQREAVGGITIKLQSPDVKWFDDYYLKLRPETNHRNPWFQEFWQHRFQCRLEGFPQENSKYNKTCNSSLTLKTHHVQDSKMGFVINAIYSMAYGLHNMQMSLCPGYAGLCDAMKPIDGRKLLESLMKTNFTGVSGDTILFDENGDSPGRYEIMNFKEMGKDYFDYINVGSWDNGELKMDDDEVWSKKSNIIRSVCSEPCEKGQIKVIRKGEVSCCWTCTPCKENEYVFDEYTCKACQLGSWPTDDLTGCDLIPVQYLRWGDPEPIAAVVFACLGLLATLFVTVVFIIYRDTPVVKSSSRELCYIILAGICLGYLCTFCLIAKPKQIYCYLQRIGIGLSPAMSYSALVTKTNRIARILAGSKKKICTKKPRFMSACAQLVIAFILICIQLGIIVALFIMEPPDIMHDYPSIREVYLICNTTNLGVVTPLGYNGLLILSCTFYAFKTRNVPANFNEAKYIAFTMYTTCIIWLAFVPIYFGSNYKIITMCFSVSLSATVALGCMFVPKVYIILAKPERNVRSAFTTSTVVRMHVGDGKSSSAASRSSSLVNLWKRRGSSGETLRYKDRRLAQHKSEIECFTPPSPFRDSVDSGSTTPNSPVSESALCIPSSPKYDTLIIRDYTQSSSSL
Source text: Functional Assessment of mGluR5 Antagonism in Cell Lines Expressing mGluR5D
The properties of the compounds of the invention can be analyzed using standard assays for pharmacological activity. Examples of glutamate receptor assays are well known in the art as described in for example Aramori et al., Neuron 8:757 (1992), Tanabe et al., Neuron 8:169 (1992), Miller et al., J. Neuroscience 15: 6103 (1995), Balazs, et al., J Neurochemistry 69:151 (1997). The methodology described in these publications is incorporated herein by reference. […]
Cells expressing human mGluR5d as described in WO97/05252 cultured in a mixture of high glucose DMEM with Glutamax (31966-021)(500 mL), 10% dialyzed fetal bovine serum (Hyclone #SH30079.03)(56 mL), 200 μg/mL Hygromycin B (Invitrogen 45-0430, 50 mg/mL)(2.2 mL), 200 μg/mL Zeocin (Invitrogen #R250-01; 100 mg/mL)(1.1 mL) are seeded at a density of 100,000 cells per well on collagen coated clear bottom 96-well plates with black sides and cells were allowed to adhere over night before experiments. […] The fluorescence signal is sampled 50 times at 1-second intervals followed by 3 samples at 5-second intervals immediately after each of the two additions. Responses are measured as the difference between the peak heights of the response to agonist, less the background fluorescence within the sample period. […]

Kp [1] | IC50 (human mGluR5d) | Structure (SMILES)
< 0.01 | 16 nM | CNC(=O)c1ccc(-c2nnc(N3CCC[C@@H]3c3cc(-c4cccc(Cl)c4)on3)n2C)cc1 [Example 6.2, 4-[5-[(2R)-2-[5-(3-Chlorophenyl)1,2-oxazol-3-yl]pyrrolidin-1-yl]-4-methyl-1,2,4-triazo1-3-yl]-N-methyl-benzamide]
< 0.01 | 11 nM | Cn1c(-c2ccc(C(N)=O)cc2)nnc1N1CCC[C@@H]1c1cc(-c2cccc(Cl)c2)on1 [Example 6.1, 4-[5-[(2R)-2-[5-(3-Chlorophenyl)1,2-oxazol-3-yl]pyrrolidin-1-yl]-4-methyl-1,2,4-triazol-3-yl]benzamide]
